In general, IC50 refers to the concentration needed to halve the response being measured. Higher therefore signals a need for much substance.

This passage reports IC50 results from BindingDB's records for patent US20240018157 (Schrödinger, 2024).

The target in the test is T1, Mucosa-associated lymphoid tissue lymphoma translocation protein 1 (Homo sapiens, UniProt Q9UDY8).
T1 sequence (Q9UDY8 whole entry): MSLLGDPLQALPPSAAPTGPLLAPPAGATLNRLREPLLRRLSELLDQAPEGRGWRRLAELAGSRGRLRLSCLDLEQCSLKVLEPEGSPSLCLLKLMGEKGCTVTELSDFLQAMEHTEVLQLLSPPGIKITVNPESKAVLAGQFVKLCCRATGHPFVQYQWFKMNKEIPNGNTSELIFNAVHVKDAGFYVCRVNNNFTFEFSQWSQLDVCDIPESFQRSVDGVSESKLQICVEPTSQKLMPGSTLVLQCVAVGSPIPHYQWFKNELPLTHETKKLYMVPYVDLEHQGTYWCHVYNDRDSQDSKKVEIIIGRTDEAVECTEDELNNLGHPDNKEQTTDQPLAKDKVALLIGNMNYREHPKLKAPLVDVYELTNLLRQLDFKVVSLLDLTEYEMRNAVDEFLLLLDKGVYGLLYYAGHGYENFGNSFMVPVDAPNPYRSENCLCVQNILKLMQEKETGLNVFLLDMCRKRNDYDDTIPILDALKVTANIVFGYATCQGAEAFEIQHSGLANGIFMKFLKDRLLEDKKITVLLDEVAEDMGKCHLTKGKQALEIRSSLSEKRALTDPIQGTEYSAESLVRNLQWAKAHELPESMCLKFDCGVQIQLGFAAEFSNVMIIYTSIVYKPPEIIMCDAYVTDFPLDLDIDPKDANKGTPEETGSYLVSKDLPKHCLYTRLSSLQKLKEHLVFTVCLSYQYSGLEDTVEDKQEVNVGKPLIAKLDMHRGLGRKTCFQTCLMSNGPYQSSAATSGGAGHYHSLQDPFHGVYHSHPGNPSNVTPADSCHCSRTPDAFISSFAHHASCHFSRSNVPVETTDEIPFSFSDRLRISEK
In words: MALT1 Protease Assay 2. How it is done:
Test compounds were dissolved in 100% DMSO at stock of 10 mM, with final DMSO concentration 0.1%. Test compounds were pre-incubated with MALT1 protein for 2 h at room temperature.

The compound `CC1(C)CN(C(=O)Nc2cnc(-n3nccn3)c(Cl)c2)c2cnc3cc(Cl)nn3c21` [US20240018157, Example 1] showed an IC50 of 10 to 100 nM.

`C[C@@]1(C2CC2)CN(C(=O)Nc2cnc(-n3nccn3)c(Cl)c2)c2cnc3cc(Cl)nn3c21` [US20240018157, Example 4] returned an IC50 of 10 to 100 nM.

For the compound `COc1ncc(NC(=O)N2C[C@@](C)(C(F)(F)F)c3c2cnc2cc(Cl)nn32)cc1Cl` [US20240018157, Example 18], the IC50 was under 10 nM.

Compound `C[C@@]1(C(F)(F)F)CN(C(=O)Nc2cnc(-n3ncc(CO)n3)c(Cl)c2)c2cnc3cc(Cl)nn3c21` [US20240018157, Example 24] came in with an IC50 of under 10 nM.

For `C[C@@]1(C(F)(F)F)CN(C(=O)Nc2ccnc(C(F)(F)F)c2)c2cnc3cc(Cl)nn3c21` [US20240018157, Example 27], the IC50 was under 10 nM.

Compound `CN(C)Cc1cnn(-c2ncc(NC(=O)N3C[C@@](C)(C(F)(F)F)c4c3cnc3cc(Cl)nn43)cc2Cl)n1` [US20240018157, Example 29] gave an IC50 of 10 to 100 nM.

The compound `Cc1cc2ncc3c(n2n1)[C@](C)(C(F)(F)F)CN3C(=O)Nc1cnc(-n2nccn2)c(Cl)c1` [US20240018157, Example 32] had an IC50 of under 10 nM.

`C[C@@]1(C(F)(F)F)CN(C(=O)Nc2cnc(-n3nccn3)c(C(F)F)c2)c2cnc3cc(Cl)nn3c21` [US20240018157, Example 35] returned an IC50 of under 10 nM.

`C[C@@]1(C(F)(F)F)CN(C(=O)Nc2cnc(-n3ccnn3)c(C(F)F)c2)c2cnc3cc(Cl)nn3c21` [US20240018157, Example 36]: the IC50 is under 10 nM.

As to `C[C@@]1(C(F)(F)F)CN(C(=O)Nc2cnc(-n3nccn3)c(Cl)c2)c2cnc3cc(F)nn3c21` [US20240018157, Example 39], the IC50 was under 10 nM.

Consider `C[C@@]1(C(F)(F)F)CN(C(=O)N[C@H]2CCCC(F)(F)C2)c2cnc3cc(Cl)nn3c21` [US20240018157, Example 53], for which the IC50 was 100 to 1000 nM.

Compound `C[C@@]1(C(F)(F)F)CN(C(=O)Nc2cnc([C@H](O)CO)c(Cl)c2)c2cnc3cc(Cl)nn3c21` [US20240018157, Example 55] came in with an IC50 of 10 to 100 nM.

`C[C@@]1(C(F)(F)F)CN(C(=O)Nc2cnc([C@@H](O)CO)c(Cl)c2)c2cnc3cc(Cl)nn3c21` [US20240018157, Example 56] yielded an IC50 of 100 to 1000 nM.

Turning to `C[C@@]1(C(F)(F)F)CN(C(=O)Nc2cnc(-n3cc(CO)cn3)c(Cl)c2)c2cnc3cc(Cl)nn3c21` [US20240018157, Example 57], the IC50 was under 10 nM.

The compound `C[C@@]1(C(F)(F)F)CN(C(=O)Nc2ccnc(C(F)F)c2)c2cnc3cc(Cl)nn3c21` [US20240018157, Example 60] came in with an IC50 of under 10 nM.

As for `COc1c(Cl)cc(NC(=O)N2C[C@@](C)(C(F)(F)F)c3c2cnc2cc(Cl)nn32)nc1O[C@H]1CCNC1` [US20240018157, Example 63], the IC50 is under 10 nM.

With `C[C@@]1(C(F)(F)F)CN(C(=O)Nc2cnnc(C(F)F)c2)c2cnc3cc(Cl)nn3c21` [US20240018157, Example 65], the IC50 lay in the range of 10 to 100 nM.

Compound `COc1cnc(C(F)(F)F)cc1NC(=O)N1C[C@@](C)(C(F)(F)F)c2c1cnc1cc(Cl)nn21` [US20240018157, Example 66] displayed an IC50 of under 10 nM.

For `C[C@@]1(C(F)(F)F)CN(C(=O)Nc2cnc(C3(O)CC3)c(Cl)c2)c2cnc3cc(Cl)nn3c21` [US20240018157, Example 67], the IC50 was 100 to 1000 nM.

As for `C[C@H](O)c1cc(NC(=O)N2C[C@@](C)(C(F)(F)F)c3c2cnc2cc(Cl)nn32)cc(C(F)(F)F)n1` [US20240018157, Example 68], the half-maximal inhibitory concentration (IC50) lay in the range of 10 to 100 nM.

`C[C@@H](O)c1cc(NC(=O)N2C[C@@](C)(C(F)(F)F)c3c2cnc2cc(Cl)nn32)cc(C(F)(F)F)n1` [US20240018157, Example 69]: the IC50 was 10 to 100 nM.

Turning to `C[C@@]1(C(F)(F)F)CN(C(=O)Nc2cnc(-n3ncc([C@H](O)CO)n3)c(Cl)c2)c2cnc3cc(Cl)nn3c21` [US20240018157, Example 70], the half-inhibitory concentration (IC50) was under 10 nM.

`C[C@@]1(C(F)(F)F)CN(C(=O)Nc2cnc(-n3ncc([C@@H](O)CO)n3)c(Cl)c2)c2cnc3cc(Cl)nn3c21` [US20240018157, Example 71] showed an IC50 of under 10 nM.

`C[C@@H](O)COc1ncc(NC(=O)N2C[C@@](C)(C(F)(F)F)c3c2cnc2cc(Cl)nn32)cc1Cl` [US20240018157, Example 74] displayed an IC50 of 10 to 100 nM.

`C[C@@]1(C(F)(F)F)CN(C(=O)Nc2cc(O[C@H]3CCNC3)nc(C(F)(F)F)c2)c2cnc3cc(Cl)nn3c21` [US20240018157, Example 75] returned an IC50 of 10 to 100 nM.

`C[C@H](O)c1cnn(-c2ncc(NC(=O)N3C[C@@](C)(C(F)(F)F)c4c3cnc3cc(Cl)nn43)cc2Cl)n1` [US20240018157, Example 76] had an IC50 of under 10 nM.

`C[C@@H](O)c1cnn(-c2ncc(NC(=O)N3C[C@@](C)(C(F)(F)F)c4c3cnc3cc(Cl)nn43)cc2Cl)n1` [US20240018157, Example 77] yielded an IC50 of under 10 nM.

`COCc1cnn(-c2ncc(NC(=O)N3C[C@@](C)(C(F)(F)F)c4c3cnc3cc(Cl)nn43)cc2Cl)n1` [US20240018157, Example 79] showed an IC50 of under 10 nM.

Turning to `C[C@@]1(C(F)(F)F)CN(C(=O)Nc2cc(N=S(C)(C)=O)nc(C(F)(F)F)c2)c2cnc3cc(Cl)nn3c21` [US20240018157, Example 83], the IC50 is under 10 nM.

Turning to `C[C@@]1(C(F)(F)F)CN(C(=O)Nc2cnc(N=S(C)(C)=O)c(Cl)c2)c2cnc3cc(Cl)nn3c21` [US20240018157, Example 85], the IC50 was under 10 nM.

The compound `C[C@@]1(C(F)(F)F)CN(C(=O)Nc2cnc(-n3nccc3C#N)c(C#N)c2)c2cnc3cc(Cl)nn3c21` [US20240018157, Example 87] yielded an IC50 of under 10 nM.

`C[C@@]1(C(F)(F)F)CN(C(=O)Nc2ccnc(C(F)F)c2)c2cnc3cc(F)nn3c21` [US20240018157, Example 88] registered an IC50 of 10 to 100 nM.

`C[C@]1(C(F)(F)F)CN(C(=O)Nc2ccnc(C(F)F)c2)c2cnc3cc(F)nn3c21` [US20240018157, Example 89] came in with an IC50 of 100 to 1000 nM.

`C[C@@]1(C(F)(F)F)CN(C(=O)Nc2cnc(-n3nccn3)c(C#N)c2)c2cnc3cc(F)nn3c21` [US20240018157, Example 91] returned an IC50 of under 10 nM.

Compound `COc1cnn(-c2ncc(NC(=O)N3C[C@@](C)(C(F)(F)F)c4c3cnc3cc(Cl)nn43)cc2Cl)n1` [US20240018157, Example 92] yielded an IC50 of under 10 nM.

In turn, `CCOc1cc(NC(=O)N2C[C@@](C)(C(F)(F)F)c3c2cnc2cc(Cl)nn32)cn(C(F)F)c1=O` [US20240018157, Example 93] showed an IC50 of 10 to 100 nM.

Turning to `C[C@@]1(C(F)(F)F)CN(C(=O)Nc2cnn(S(C)(=O)=O)c2)c2cnc3cc(Cl)nn3c21` [US20240018157, Example 94], the IC50 was 100 to 1000 nM.

`COC[C@@]1(C(F)(F)F)CN(C(=O)Nc2cnc(-n3nccn3)c(Cl)c2)c2cnc3cc(Cl)nn3c21` [US20240018157, Example 97] showed an IC50 of under 10 nM.

As to `COC[C@]1(C(F)(F)F)CN(C(=O)Nc2cnc(-n3nccn3)c(Cl)c2)c2cnc3cc(Cl)nn3c21` [US20240018157, Example 98], the IC50 is 10 to 100 nM.

In turn, `C[C@@]1(C(F)(F)F)CN(C(=O)Nc2cc(C(F)F)no2)c2cnc3cc(Cl)nn3c21` [US20240018157, Example 103] showed an IC50 of 100 to 1000 nM.

Regarding `C[C@@]1(C(F)(F)F)CN(C(=O)Nc2cnc(-n3nccn3)c(C(F)F)c2)c2cnc3cc(F)nn3c21` [US20240018157, Example 104], the IC50 is under 10 nM.

In turn, `C[C@]1(C(F)(F)F)CN(C(=O)Nc2cnc(-n3nccn3)c(C(F)F)c2)c2cnc3cc(F)nn3c21` [US20240018157, Example 105] came in with an IC50 of 100 to 1000 nM.

Turning to `CN(C)C(=O)COc1ncc(NC(=O)N2C[C@@](C)(C(F)(F)F)c3c2cnc2cc(Cl)nn32)cc1C(F)F` [US20240018157, Example 108], the IC50 is over 1000 nM.

In turn, `C[C@@]1(C(F)(F)F)CN(C(=O)Nc2cnnc(C(F)F)c2)c2cnc3cc(F)nn3c21` [US20240018157, Example 114] had an IC50 of over 1000 nM.

Consider `C[C@]1(C(F)(F)F)CN(C(=O)Nc2cnnc(C(F)F)c2)c2cnc3cc(F)nn3c21` [US20240018157, Example 115], for which the IC50 fell in the range of 10 to 100 nM.

Consider `C[S@+]([O-])c1ccc(NC(=O)N2C[C@@](C)(C(F)(F)F)c3c2cnc2cc(Cl)nn32)cc1C(F)F` [US20240018157, Example 116], for which the IC50 is under 10 nM.

Compound `C[S@@+]([O-])c1ccc(NC(=O)N2C[C@@](C)(C(F)(F)F)c3c2cnc2cc(Cl)nn32)cc1C(F)F` [US20240018157, Example 117] had an IC50 of 100 to 1000 nM.

`Cc1cn2ncc3c(c2n1)[C@](C)(C(F)(F)F)CN3C(=O)Nc1cnnc(C(F)F)c1` [US20240018157, Example 119]: the IC50 is 10 to 100 nM.

With `Cc1cn2ncc3c(c2n1)[C@@](C)(C(F)(F)F)CN3C(=O)Nc1cnnc(C(F)F)c1` [US20240018157, Example 120], the IC50 was over 1000 nM.
